Test results as given in US20250043349A1, “DEORPHANIZING ODORS USING SINGLE CELL SEQUENCING” (PRESIDENT AND FELLOWS OF HARVARD COLLEGE, priority 2021, published 2025).

What was measured:
[1] = tested on: Olfr923; test: Act-Seq activation score in OSNs expressing Olfr923; format: in vivo, mouse; conditions: acetophenone vs 2-HA
Procedure: Act-Seq (Wu et al., 2017) was performed following odor exposure to quantify odor-evoked responses in each OSN subtype (defined by their expressed OR) across the entire OR repertoire. Mice were habituated to a reversed light cycle for at least for 1 week before odor exposure, transferred to a new disposable cage with regular bedding/food and kept overnight in a satellite animal facility. On the experimental day, each mouse was first transferred to a new empty disposable cage during the dark cycle and habituated for 20 minutes. Empty cages were used to avoid any activation by odorants present within the environments in which the mice were housed. Odors were added to a piece of filter paper (100 μL of odorant) in a 35 mm petri dish and a cotton ball (200 μL of odorant) and placed in each cage. […]
The remaining 169 activation genes that were also considered as HVGs often had weak loadings across multiple GEPs. […] To summarize the effects of odor activation across this set of activation genes, the TPT-expression of these activation genes were z-scored (using means and standard deviations for these genes in the control, acetophenone, and octanal datasets, identified by subsampling equal numbers of cells across all ORs expressed in at least 6 cells across 100 restarts). […] PCA was performed on the differences in z-scored activation gene expression between control and odor conditions. […]

[2] = tested on: acetophenone-responsive OSN subtypes; test: Transient naris occlusion followed by Act-Seq; format: in vivo, mouse; conditions: 10% acetophenone, 2 hours after unplugging
Procedure: Because odor responses in occluded OSNs cannot be examined in the chronic occlusion experiment due to permanent cautery, transient unilateral naris occlusion was performed using removable nasal plugs. Adult mice (6-12 weeks old) were anesthetized by isoflurane and removal nasal plugs were inserted into one of the two nostrils, as previously described (Galliano et al., 2021; Kass et al., 2012). The occlusion was confirmed by measuring airflow from the occluded nostril via thermocouple. After 5 days, a subset of mice was used for scSeq experiment directly (control mice) to assess the effects of naris occlusion on changes in gene expression. Under brief anesthesia by isoflurane, the remaining mice were unplugged and transferred to a new empty disposable cage containing either DPG alone or 10% acetophenone. After 2 hours, mice were subjected to scSeq. Each of the two nostrils was used separately in both control (open and plugged) and odor-exposed mice (open and unplugged).

CC(=O)c1ccccc1 [acetophenone]
activation scores for OSNs expressing Olfr923 [1]: higher for acetophenone than 2-HA | activation scores of acetophenone receptor-expressing OSNs from occluded (unplugged) vs open nostrils [2]: higher activation scores
